For data set [1] the following is noted: oral doses between 3 g and 50 g; cited from earlier work.
The subject of data set [2] is different Candida species. To be noted: WO 2017/174731, WO 2019/068862; cited from earlier work.
For data set [3], the system named is different Candida species. Kind of data set: Biofilm of Candida species. Format: cell-based. To be noted: found by the present inventors.
In data set [4] the test system is several strains of bacteria. Kind of data set: Biofilm of bacteria. To be noted: found by the present inventors. Format: cell-based.
Data set [5] deals with Candida albicans. To be noted: preclinical studies; WO 2017/174731; cited from earlier work.
The test system of data set [6] is several strains of bacteria. To be noted: WO 2017/174731, WO 2019/068862; cited from earlier work.
The conditions of data set [7]: IPCS 1999; 21CFR184.1318; cited from earlier work.

SMILES strings stand for the structures.

Turning to `O=C1O[C@H](CO)[C@@H](O)[C@H](O)[C@H]1O` [GDL, glucono-δ-lactone], in data set [1], the signs of toxicity entry was “no signs of toxicity”. Also, in data set [2], the “presence / formation of biofilm” value is listed as “significantly reduced”. In addition, the formation of biofilm result in data set [3] and in data set [4] was “has an effect on the formation of biofilm” in each case. Further, the “Candida albicans present in the hyphal, i.e. the pathogenic form” value in data set [5] was “significant reduction”.
Regarding `O=C(O)[C@H](O)[C@@H](O)[C@H](O)[C@H](O)CO` [gluconic acid], in data set [6], the presence of biofilm entry is “reduces the presence of biofilm”. Moreover, in data set [2], the “presence / formation of biofilm” value is reported as “reduces the presence of biofilm”. Also, the “carcinogenicity, teratogenicity, or genotoxicity” value in data set [7] is “no evidence”.

The values above are taken from patent US12496288B2, “Vaginal tablet formulation” (Gedea Biotech AB, priority 2019, dated 2025).
